Results on three compounds are retold here after ChEMBL document CHEMBL5154787 (J Med Chem, 2022).

Each structure is given as a SMILES string. In brackets after ≈: the same amount, converted by molar mass.

Data set [1] is described as follows: Genotoxicity in chinese hamster CHO cells without metabolic activation system at 59 uM by IVMN assay. The data set is classed as toxicity, cell-based, Cricetulus griseus.
The nature of data set [2]: Solubility of compound at pH 7.4 measured after 24 hrs. The data set is classed as physicochemical. Conditions: buffer.
The test system of data set [3] is Rattus norvegicus. The experiment in a line: Analgesic activity in STZ induced in diabetic peripheral neuropathic mechanical allodynia in Sprague-Dawley rat assessed as reduction in pain response at 10 mg/kg, po measured up to 24 hrs by Hargreaves test relative to control. Also on record: scale not given: the % may be the effect or the level left. It counts as functional.

For data set [4], the system named is Rattus norvegicus. The experiment in a line: Analgesic activity in STZ induced in diabetic peripheral neuropathic mechanical allodynia in Sprague-Dawley rat assessed as reduction in pain response at 3 mg/kg, po measured up to 24 hrs by Hargreaves test relative to control. The data set is classed as functional. Also on record: scale not given: the % may be the effect or the level left.

Data set [5] in a line: Chemical stability of the compound assessed as remaining product at pH 7.4 measured after 22 hrs. The data set is classed as physicochemical. Conditions: buffer, read-out: Stability.
The nature of data set [6]: Solubility of compound at pH 1 measured after 24 hrs. The data set is classed as physicochemical. To be noted: buffer.
A short description of data set [7]: Solubility of compound at pH 6.5 measured after 24 hrs. The data set is classed as physicochemical. To be noted: buffer.
In data set [8] the target is Death-associated protein kinase 1 (Homo sapiens, UniProt P53355). The experiment in a line: Inhibition of DAPK1 (unknown origin).
Data set [9] has as its system Rattus norvegicus. The experiment in a line: Analgesic activity in STZ induced in diabetic peripheral neuropathic mechanical allodynia in Sprague-Dawley rat assessed as reversal in mechanical allodynia by measuring inhibition of pain response at 1 mg/kg, po measured up to 24 hrs by Hargreaves test relative to control. Also on record: scale not given: the % may be the effect or the level left. It counts as functional.

Data set [10] can be described thus: Solubility of compound at pH 3 measured after 24 hrs. The data set is classed as physicochemical. To be noted: buffer.
Data set [11] concerns the target 5-hydroxytryptamine receptor 2B (Homo sapiens, UniProt P41595). The experiment in a line: Inhibition of 5HT2B receptor (unknown origin). It counts as toxicity.
The nature of data set [12]: Chemical stability of the compound assessed as remaining product at pH 1 measured after 22 hrs. It counts as physicochemical. Conditions: buffer, read-out: Stability.
The nature of data set [13]: Solubility of compound in FaSSIF incubated for 24 hrs. The data set is classed as physicochemical.
The nature of data set [14]: Solubility of compound at pH 5 measured after 24 hrs. It counts as physicochemical. To be noted: buffer.
Data set [15] in a line: Inhibition of TAK/TAB (unknown origin).
Data set [16] has as its target Rho-associated protein kinase 2 (Homo sapiens, UniProt O75116). Briefly: Inhibition of ROCK2 (unknown origin).
In data set [17] the target is T1, Homeodomain-interacting protein kinase 4 (Homo sapiens, UniProt Q8NE63).
T1 sequence (Q8NE63 whole entry): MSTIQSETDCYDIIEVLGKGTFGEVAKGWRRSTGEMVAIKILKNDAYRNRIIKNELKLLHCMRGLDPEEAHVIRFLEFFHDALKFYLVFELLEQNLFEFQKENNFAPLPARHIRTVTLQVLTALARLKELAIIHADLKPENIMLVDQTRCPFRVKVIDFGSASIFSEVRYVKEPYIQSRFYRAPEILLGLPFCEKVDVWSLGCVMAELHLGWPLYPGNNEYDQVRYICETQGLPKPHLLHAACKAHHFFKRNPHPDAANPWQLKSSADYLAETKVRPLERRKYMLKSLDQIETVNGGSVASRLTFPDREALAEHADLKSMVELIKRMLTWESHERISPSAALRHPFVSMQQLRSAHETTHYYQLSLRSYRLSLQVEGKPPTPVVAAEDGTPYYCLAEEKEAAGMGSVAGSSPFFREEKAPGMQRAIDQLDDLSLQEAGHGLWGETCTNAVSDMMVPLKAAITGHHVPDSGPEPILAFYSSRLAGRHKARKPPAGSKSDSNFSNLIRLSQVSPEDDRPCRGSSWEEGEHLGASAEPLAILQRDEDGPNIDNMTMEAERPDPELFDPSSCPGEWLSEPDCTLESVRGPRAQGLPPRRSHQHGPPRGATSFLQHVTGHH
The experiment in a line: Inhibition of HIPK4 (unknown origin).

Data set [18] deals with AP2-associated protein kinase 1 (Homo sapiens, UniProt Q2M2I8). Briefly: Inhibition of bacterially expressed GST-Xa-tagged human AAK1 using 5-FAM-labelled Aha-KEEQSQITSQVTGQIGWR-NH2 peptide as substrate incubated for 3 hrs in presence of ATP by electrophoretic analysis.
In data set [19] the target is Acetylcholine receptor subunit alpha (Homo sapiens, UniProt P02708). Briefly: Inhibition of nicotinic acetylcholine receptor alpha 1 (unknown origin). It counts as toxicity.
Data set [20] concerns the target Solute carrier organic anion transporter family member 1B3 (Homo sapiens, UniProt Q9NPD5). The experiment in a line: Inhibition of OATP1B3 (unknown origin).
In data set [21] the target is Solute carrier organic anion transporter family member 1B1 (Homo sapiens, UniProt Q9Y6L6). The experiment in a line: Inhibition of OATP1B1 (unknown origin).
Data set [22] is described as follows: Plasma concentration in rat at 3 mg/kg, po measured after 4 hrs. The data set is classed as ADME, organism-based.
Data set [23] in a line: Plasma concentration in CCI induced thermal hyperalgesia in Sprague-Dawley rat at 1 mg/kg, po measured at 5.5 hrs post dose. The data set is classed as ADME, organism-based.
Data set [24] can be described thus: Ratio of drug concentration in spinal cord to plasma in CCI induced thermal hyperalgesia in Sprague-Dawley rat at 1 mg/kg, po measured at 5.5 hrs post dose. It counts as ADME, organism-based.
The nature of data set [25]: In vivo protein occupancy at AAK1 in rat at 3 mg/kg, po measured after 4 hrs. The data set is classed as functional.
Data set [26] in a line: Tmax in rat at 3 mg/kg, po. It counts as ADME, organism-based. Conditions: in vivo.
A short description of data set [27]: Drug concentration in CCI induced thermal hyperalgesia in Sprague-Dawley rat spinal cord at 3 mg/kg, po measured after 5.5 hrs. The data set is classed as ADME, organism-based. To be noted: read-out: Ct.
Data set [28] can be described thus: Plasma concentration in CCI induced thermal hyperalgesia in Sprague-Dawley rat at 3 mg/kg, po measured at 5.5 hrs post dose. It counts as ADME, organism-based.
A short description of data set [29]: Protein binding in cynomolgus monkey plasma assessed as unbound fraction measured after 3 hrs by LC/MS/MS analysis. The data set is classed as ADME, cell-free, Macaca fascicularis.
Data set [30] can be described thus: Drug concentration in CCI induced thermal hyperalgesia in Sprague-Dawley rat spinal cord at 1 mg/kg, po measured after 5.5 hrs. It counts as ADME, organism-based. Conditions: read-out: Ct.
In data set [31] the test system is Rattus norvegicus. The experiment in a line: Analgesic activity in CCI induced thermal hyperalgesia in Sprague-Dawley rat assessed as reduction in thermal hyperalgesia by measuring inhibition of pain response at 3 mg/kg, po measured after 5.5 hrs by Hargreaves test relative to control. The data set is classed as functional. Also on record: scale not given: the % may be the effect or the level left.

A short description of data set [32]: Ratio of drug concentration in spinal cord to plasma in CCI induced thermal hyperalgesia in Sprague-Dawley rat at 3 mg/kg, po measured at 5.5 hrs post dose. It counts as ADME, organism-based.
Data set [33] concerns the target ATP-binding cassette sub-family C member 2 (Homo sapiens, UniProt Q92887). Briefly: Inhibition of MRP2 (unknown origin).
A short description of data set [34]: Ratio of drug concentration in spinal cord to plasma in rat at 3 mg/kg, po measured at 4 hrs post dose. It counts as ADME, organism-based.
Data set [35] addresses Hepatic sodium/bile acid cotransporter (Homo sapiens, UniProt Q14973). Briefly: Inhibition of NTCP (unknown origin).
The target of another data set is Bile salt export pump (Homo sapiens, UniProt O95342). The experiment in a line: Inhibition of BSEP (unknown origin).
Data set [36] is described as follows: Protein binding in dog plasma assessed as unbound fraction measured after 3 hrs by LC/MS/MS analysis. It counts as ADME, cell-free, Canis lupus familiaris.
Data set [37] has as its system Rattus norvegicus. The experiment in a line: Analgesic activity in CCI induced thermal hyperalgesia in Sprague-Dawley rat assessed as reduction in thermal hyperalgesia by measuring inhibition of pain response at 1 mg/kg, po measured after 5.5 hrs by Hargreaves test relative to control. It counts as functional. Also on record: scale not given: the % may be the effect or the level left.

The nature of data set [38]: Inhibition of cardiac sodium channel (unknown origin). Also on record: species or system Homo sapiens.

Sequence of Rho-associated protein kinase 2 (O75116 whole entry): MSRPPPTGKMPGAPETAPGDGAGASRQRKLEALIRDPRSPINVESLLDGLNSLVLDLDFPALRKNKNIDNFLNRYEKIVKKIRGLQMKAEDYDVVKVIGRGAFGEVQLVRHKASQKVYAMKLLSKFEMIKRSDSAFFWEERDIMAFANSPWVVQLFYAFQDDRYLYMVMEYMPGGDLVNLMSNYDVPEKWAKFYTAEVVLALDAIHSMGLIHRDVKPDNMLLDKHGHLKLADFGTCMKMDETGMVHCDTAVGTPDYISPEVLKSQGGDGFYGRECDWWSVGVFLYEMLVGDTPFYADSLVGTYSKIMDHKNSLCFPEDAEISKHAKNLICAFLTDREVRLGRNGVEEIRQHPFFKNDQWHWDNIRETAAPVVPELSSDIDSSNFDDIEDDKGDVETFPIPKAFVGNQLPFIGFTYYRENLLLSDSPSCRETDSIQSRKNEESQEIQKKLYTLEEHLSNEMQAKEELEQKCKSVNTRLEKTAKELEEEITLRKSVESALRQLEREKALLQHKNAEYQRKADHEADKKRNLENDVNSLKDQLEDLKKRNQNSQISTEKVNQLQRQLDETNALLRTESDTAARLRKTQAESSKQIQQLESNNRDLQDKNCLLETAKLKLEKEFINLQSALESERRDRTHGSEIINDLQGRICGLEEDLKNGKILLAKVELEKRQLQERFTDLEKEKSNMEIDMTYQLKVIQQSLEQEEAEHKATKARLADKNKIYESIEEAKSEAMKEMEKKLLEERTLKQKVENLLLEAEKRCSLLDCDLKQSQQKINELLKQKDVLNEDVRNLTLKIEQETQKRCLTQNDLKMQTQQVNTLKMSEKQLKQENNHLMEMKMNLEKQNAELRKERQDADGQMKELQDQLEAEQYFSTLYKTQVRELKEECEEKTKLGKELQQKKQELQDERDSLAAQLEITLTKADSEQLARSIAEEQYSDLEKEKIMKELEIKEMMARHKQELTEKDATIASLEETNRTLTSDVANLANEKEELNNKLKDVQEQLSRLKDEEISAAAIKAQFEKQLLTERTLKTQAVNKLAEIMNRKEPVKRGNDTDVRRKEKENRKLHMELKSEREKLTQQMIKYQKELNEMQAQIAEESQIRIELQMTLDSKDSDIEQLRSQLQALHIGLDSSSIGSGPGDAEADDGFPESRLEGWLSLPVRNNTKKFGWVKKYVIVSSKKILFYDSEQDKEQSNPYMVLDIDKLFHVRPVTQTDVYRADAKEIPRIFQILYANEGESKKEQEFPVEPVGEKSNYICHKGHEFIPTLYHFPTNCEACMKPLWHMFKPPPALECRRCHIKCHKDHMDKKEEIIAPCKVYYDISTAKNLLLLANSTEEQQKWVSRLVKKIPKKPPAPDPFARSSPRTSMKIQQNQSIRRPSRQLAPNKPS
Sequence of Hepatic sodium/bile acid cotransporter (Q14973 whole entry): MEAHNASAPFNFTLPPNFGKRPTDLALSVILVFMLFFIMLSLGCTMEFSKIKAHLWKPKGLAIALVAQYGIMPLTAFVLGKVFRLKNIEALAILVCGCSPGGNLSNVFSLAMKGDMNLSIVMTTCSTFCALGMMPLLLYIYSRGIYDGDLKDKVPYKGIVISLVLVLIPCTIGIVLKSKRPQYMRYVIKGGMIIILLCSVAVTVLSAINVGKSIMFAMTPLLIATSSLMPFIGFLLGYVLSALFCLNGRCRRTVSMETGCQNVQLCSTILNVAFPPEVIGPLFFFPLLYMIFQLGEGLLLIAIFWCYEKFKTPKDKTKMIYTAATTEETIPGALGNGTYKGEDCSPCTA
Sequence of Death-associated protein kinase 1 (P53355 whole entry): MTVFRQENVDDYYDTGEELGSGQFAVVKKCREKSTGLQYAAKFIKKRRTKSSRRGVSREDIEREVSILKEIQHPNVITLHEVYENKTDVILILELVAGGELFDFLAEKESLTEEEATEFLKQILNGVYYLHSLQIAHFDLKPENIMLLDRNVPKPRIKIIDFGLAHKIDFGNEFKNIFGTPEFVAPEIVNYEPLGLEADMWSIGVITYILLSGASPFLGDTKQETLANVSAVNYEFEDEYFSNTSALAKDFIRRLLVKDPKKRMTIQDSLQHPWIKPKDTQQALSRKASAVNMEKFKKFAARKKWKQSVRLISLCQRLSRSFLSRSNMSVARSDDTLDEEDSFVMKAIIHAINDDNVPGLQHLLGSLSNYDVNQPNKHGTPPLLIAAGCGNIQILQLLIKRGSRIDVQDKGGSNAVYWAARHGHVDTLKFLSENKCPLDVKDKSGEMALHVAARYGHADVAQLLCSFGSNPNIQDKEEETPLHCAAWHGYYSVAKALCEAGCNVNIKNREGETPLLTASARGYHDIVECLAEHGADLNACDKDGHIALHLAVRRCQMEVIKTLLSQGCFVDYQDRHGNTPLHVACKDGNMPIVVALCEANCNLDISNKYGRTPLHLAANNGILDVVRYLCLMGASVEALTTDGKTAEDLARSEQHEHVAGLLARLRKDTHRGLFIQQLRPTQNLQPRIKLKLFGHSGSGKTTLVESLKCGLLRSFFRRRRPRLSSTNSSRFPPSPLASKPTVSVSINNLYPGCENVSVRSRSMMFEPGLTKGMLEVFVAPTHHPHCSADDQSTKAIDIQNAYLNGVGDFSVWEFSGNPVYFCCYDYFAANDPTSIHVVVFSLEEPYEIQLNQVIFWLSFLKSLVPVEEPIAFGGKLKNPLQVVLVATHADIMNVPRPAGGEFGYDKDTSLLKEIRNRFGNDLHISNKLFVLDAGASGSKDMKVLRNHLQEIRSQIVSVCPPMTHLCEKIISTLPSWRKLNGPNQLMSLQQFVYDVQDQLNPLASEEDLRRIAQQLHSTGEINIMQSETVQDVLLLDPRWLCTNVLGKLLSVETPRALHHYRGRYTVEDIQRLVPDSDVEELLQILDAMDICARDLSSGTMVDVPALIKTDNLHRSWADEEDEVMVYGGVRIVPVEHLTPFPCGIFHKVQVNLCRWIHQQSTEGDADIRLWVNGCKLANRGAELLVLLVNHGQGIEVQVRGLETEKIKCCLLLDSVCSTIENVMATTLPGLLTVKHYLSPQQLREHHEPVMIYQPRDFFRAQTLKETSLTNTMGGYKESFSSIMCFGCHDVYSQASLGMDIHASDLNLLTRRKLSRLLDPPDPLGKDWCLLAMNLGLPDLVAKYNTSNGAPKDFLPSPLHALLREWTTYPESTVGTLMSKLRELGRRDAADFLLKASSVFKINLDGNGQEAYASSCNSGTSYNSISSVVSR
Sequence of Solute carrier organic anion transporter family member 1B1 (Q9Y6L6 whole entry): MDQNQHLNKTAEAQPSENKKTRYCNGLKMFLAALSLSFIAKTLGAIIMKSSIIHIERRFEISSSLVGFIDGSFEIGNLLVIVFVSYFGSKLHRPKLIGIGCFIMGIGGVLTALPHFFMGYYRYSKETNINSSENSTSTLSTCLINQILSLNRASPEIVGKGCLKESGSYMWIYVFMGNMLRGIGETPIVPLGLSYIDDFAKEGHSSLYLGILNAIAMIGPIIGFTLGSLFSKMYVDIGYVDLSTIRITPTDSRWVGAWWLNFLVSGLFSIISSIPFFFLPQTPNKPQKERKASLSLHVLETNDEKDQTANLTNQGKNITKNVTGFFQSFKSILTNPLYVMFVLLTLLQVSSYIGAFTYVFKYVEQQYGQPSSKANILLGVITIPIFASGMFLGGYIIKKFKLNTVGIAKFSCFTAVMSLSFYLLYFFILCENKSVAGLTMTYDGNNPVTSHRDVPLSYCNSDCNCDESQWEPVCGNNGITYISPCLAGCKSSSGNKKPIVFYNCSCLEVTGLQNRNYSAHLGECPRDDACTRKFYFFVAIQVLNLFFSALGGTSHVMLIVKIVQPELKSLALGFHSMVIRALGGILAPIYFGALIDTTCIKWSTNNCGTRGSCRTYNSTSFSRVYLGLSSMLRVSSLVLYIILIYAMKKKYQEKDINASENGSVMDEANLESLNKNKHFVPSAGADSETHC
Sequence of Solute carrier organic anion transporter family member 1B3 (Q9NPD5 whole entry): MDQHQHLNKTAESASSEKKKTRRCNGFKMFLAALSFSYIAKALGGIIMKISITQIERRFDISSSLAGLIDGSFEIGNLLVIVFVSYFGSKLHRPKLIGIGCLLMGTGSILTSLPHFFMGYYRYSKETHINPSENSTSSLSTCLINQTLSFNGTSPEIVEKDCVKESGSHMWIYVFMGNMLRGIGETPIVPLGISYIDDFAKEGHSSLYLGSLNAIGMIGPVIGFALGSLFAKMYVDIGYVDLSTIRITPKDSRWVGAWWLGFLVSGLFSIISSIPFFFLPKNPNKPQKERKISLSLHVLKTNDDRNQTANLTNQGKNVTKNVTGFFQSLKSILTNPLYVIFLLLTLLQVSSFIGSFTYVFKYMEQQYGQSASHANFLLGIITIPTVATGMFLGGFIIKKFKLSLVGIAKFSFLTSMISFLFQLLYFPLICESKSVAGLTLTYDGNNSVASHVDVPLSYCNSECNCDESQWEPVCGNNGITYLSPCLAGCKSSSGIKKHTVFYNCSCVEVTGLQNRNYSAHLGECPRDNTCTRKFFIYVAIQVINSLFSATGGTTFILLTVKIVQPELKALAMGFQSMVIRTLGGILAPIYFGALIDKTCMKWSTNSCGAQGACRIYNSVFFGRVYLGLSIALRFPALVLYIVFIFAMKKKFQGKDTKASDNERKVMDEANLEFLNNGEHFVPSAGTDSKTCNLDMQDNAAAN
Sequence of Acetylcholine receptor subunit alpha (P02708 whole entry): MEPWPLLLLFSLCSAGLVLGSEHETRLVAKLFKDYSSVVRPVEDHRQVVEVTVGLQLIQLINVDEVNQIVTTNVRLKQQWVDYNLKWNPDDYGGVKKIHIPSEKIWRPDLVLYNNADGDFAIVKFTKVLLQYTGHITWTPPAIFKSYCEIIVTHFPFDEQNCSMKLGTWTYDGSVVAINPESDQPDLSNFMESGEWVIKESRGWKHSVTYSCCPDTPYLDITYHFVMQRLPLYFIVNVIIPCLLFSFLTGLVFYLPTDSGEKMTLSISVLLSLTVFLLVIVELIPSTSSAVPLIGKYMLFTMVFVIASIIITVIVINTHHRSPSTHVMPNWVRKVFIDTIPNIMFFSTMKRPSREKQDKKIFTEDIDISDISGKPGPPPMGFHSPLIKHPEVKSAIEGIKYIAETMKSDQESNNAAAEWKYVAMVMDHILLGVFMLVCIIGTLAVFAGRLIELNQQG

`COC(=O)Nc1cc(-c2ccc(OC[C@@](C)(N)CC(C)C)c(C)n2)ccn1`: the Activity entry in data set [1] is listed as “Non-Toxic”; in the data set on Rattus norvegicus [3] it was 80%; in the data set on Rattus norvegicus [4], 60%; in the data set on Rattus norvegicus [9], 40%. Also, the solubility at 24 h was 288 µg/mL (≈ 773 µM) in data set [2]; more than 1000 µg/mL in data set [6]; more than 1000 µg/mL in data set [7]; more than 1000 µg/mL in data set [10]; more than 1000 µg/mL in [13]; more than 1000 µg/mL in data set [14]. In addition, the remaining at 22 h in data set [5] and in [12] was 100% throughout. The IC50 in data set [8] turned out to be 1400 nM; in [11] it was 540 nM.

For `COC(=O)Nc1cc(-c2cnc(OC[C@@](C)(N)CC(C)C)c(C)c2)ccn1`, the IC50 in [15] is 180 nM; in data set [16], 1300 nM; in data set [17], 1800 nM; in data set [18], 0.9 nM; in data set [19] it was 2200 nM.

On to `CC(C)C[C@](C)(N)COc1cnc(-c2ccnc(C(F)F)c2)cc1C(F)F`, for which the IC50 in data set [20] is more than 50000 nM; in data set [21], more than 50000 nM; in data set [33], more than 50000 nM; in data set [35] it was more than 50000 nM; on Bile salt export pump, more than 50000 nM; in [38] it was 5400 nM. This compound also came in with a concentration at 4 h in [22] of 47 nM. For the same compound, the concentration at 5.5 h was 12 nM in [23], 378 nM in data set [27], 29 nM in data set [28] and 217 nM in data set [30]. In addition, the Kp at 5.5 h in data set [24] amounted to 18; in [32] it was 13. Moreover, the Activity is listed as 95% in [25], 100% in the data set with Rattus norvegicus [31] and 80% in the data set on Rattus norvegicus [37]. Also, in [26], the time of peak concentration (Tmax) is 3.7 h. In addition, the fraction unbound at 3 h in data set [29] is 0.075; in data set [36], 0.08. Moreover, the Kp at 4 h in [34] turned out to be 17.6.
